Laboratory results taken from patent US11793746B2, “Intense skin hydration systems and methods” (priority 2020, dated 2023).

What was measured:
[1] = system: PGE2 synthesis by 3T3 fibroblasts; assay: Inhibition of PGE2 synthesis by 3T3 fibroblasts (ELISA); format: cell-based; details: for [PGE2]: 24 h
Excerpt: This Example establishes the anti-inflammatory potential of GC-100 by measuring the inhibition of PGE2 synthesis by 3T3 fibroblasts in cell culture.
The cells are nourished in a medium enriched with arachidonic acid which leads to increased secretion of eicosanoids into the medium.
The formation of prostaglandin PGE2 will be followed as a marker of eicosanoid synthesis, because it is a stable molecule secreted preferentially by 3T3 fibroblasts. The anti-inflammatory potential of an active ingredient may then be investigated by following the decrease in secretion of PGE2 in the culture medium.
Quantification of PGE2 will be achieved using an enzyme-linked immunosorbant assay (ELISA). In principle, the PGE2 expressed by the cells in culture medium will compete with enzyme-linked PGE2 for available antibody, which is a constant. The concentration of enzyme-linked PGE2 is also constant and quantified prior to testing. The enzyme linked to PGE2 prior to testing is acetylcholinesterase. Since the quantity of PGE2 expressed by 3T3 cells in culture will vary based on the concentration of GC-100 present, the amount of antibody available to bind to the enzyme-linked PGE2 versus that produced by the 3T3 cells assumes an inverse relationship that is dependent on Brownian motion. After eliminating unreacted PGE2 through washing, substrate is added that binds to the enzyme-PGE2-antibody complex to generate a yellow color that is strongly evident using spectrophotometer set at 412 nm. The amount of light transmitted through the test sample is directly proportional to the intensity of the color change and, consequently, to the concentration of PGE2-enzyme-antibody complex.
Create a mother solution (solution #1) containing complete DMEM, alcohol, and 2×10^5 3T3 fibroblasts for plating onto 25 cm^2 culture dishes. Using a compounding dilution technique, prepare the following solutions, using 5 mL of media per plate: • Solution #2: Solution #1 plus arachidonic acid (10^−3% P/V) • Solution #3: Solution #2 plus indomethacin (0,1,10^−3% P/V) • Solution #4: Solution #2 plus GC-100 0.5% • Solution #5: Solution #2 plus GC-100 1.0%
Incubate all preparations for 24 hours at 37° C. Recover the supernatant media, and if needed deep freeze it at −20° C. before quantification. Count the number of surviving cells using a coulter counter. Establish a calibration curve of the quantity of PGE2. Quantify the supernatant media using an enzyme-linked immunosorbant assay kit specific for PGE2 (Cayman), using a Dynotech microplate reader (MR500) with a filter set at 412 nm. Calculate the % inhibition of PGE2 synthesis. The results are shown in Table 4 and FIG. 10, which is a graph showing mean suppression of PGE2 concentration in test media comprising indomethacin or GC-100.

[2] = system: human diploid fibroblasts; assay: Fibroblast proliferation (MTT) in suboptimal nutritional medium; format: cell-based; details: for Cells/well (×10^3): control 15
Excerpt: This Example quantifies the biostimulating activity of GC-100 on human diploid fibroblasts in a suboptimal nutritional environment.
Cellular proliferation, or mitotic activity, will be assessed using an MTT assay. MTT added to the microtiter wells is metabolized by succinate dehydrogenase of the citric acid cycle. Since the metabolism of MTT is dependent on mitochondrial activity, the amount of metabolite produced can be correlated with the number of viable cells present per well. The metabolite concentration is measured via spectrophotometry, with the absorption value converted to an absolute number that describes cellular growth based on standardized curves. The results are shown in Table 2 and FIG. 5, which is a graph showing fibroblast proliferation in a suboptimal nutritional environment.

[3] = system: ultraviolet-induced erythema; assay: Ultraviolet-induced erythema, erythema scale; format: in vivo; details: for Erythema score (mean ± SD): scale 0 none to 4 severe
Description: The anti-inflammatory activity of GC-100 was evaluated using ultraviolet-induced erythema as an endpoint.
Ultraviolet radiation generates a predictable, dose-dependent cutaneous response over time. The pathological mechanism includes injury to epidermal, dermal, and vascular constituents of the skin with a local inflammatory response mediated by proinflammatory cytokines and prostaglandins. It is the objective of this experiment to determine whether GC-100 can alleviate an ultraviolet-mediated inflammatory response by qualitative assessment
Erythema was quantified after 2, 4, 5, and 24 hours following irradiation using a standard erythema scale that has been shown historically to yield reproducible results.

[4] = system: collagen I and collagen III; assay: Collagen deposition by light and electron microscopy; details: 20,000×; vs untreated control
Description: Skin tissue treated with GC-100 in the absence of ascorbic acid was prepared to illustrate collagen deposition. Tissue samples were first pretreated with Bouin's solution to intensify subsequent staining results. Samples were then treated with Mason's trichrome stain, which combines the plasma stain (chromotrope 2R) and connective tissue fiber stain)aniline blue) in a phosphotungstic acid solution to which glacial acetic acid was added. The collagen absorbs the tungsten ion, which may be visualized due to the complexed aniline blue.
Staining for specific collagen types was achieved using specific standardized indirect immunoperoxidase attains for collagen I and III, respectively.
Collagen deposition assessments are based on the visual interpretation of two endpoints: Collagen I and Collagen III. An untreated control and a tissue sample treated with GC-100 were stained to reveal collagen I. A similar method of comparison was used to illustrate collagen III deposition in control and treated tissue.
Tissues used for light microscopy were place in Karnovsky's fixative for additional evaluation using electron microscopy standard technique. Magnification power of 20,000× was used for visualization of the lower dermis.

[5] = DMEM + AA + 0.5% GC-100, column A
[6] = DMEM + AA + 0.5% GC-100, column B
[7] = DMEM + AA + 0.5% GC-100, column C
[8] = DMEM + AA + 1% GC-100, column A
[9] = DMEM + AA + 1% GC-100, column B
[10] = DMEM + AA + 1% GC-100, column C

H-Lys-Pro-NH2 [GC-100]
% change of PGE2 vs DMEM + AA, MEAN ([1]; DMEM + AA + 0.5% GC-100): −13% | % change of PGE2 vs DMEM + AA [1, 5]: −10.5% | [PGE2] [1, 5]: 2.81 pg/mL | % change of PGE2 vs DMEM + AA [1, 6]: −19.7% | [PGE2] [1, 6]: 2.41 pg/mL | % change of PGE2 vs DMEM + AA [1, 7]: −8.7% | [PGE2] [1, 7]: 2.62 pg/mL | % change of PGE2 vs DMEM + AA, MEAN ([1]; DMEM + AA + 1% GC-100): −23.9% | % change of PGE2 vs DMEM + AA [1, 8]: −23.9% | [PGE2] [1, 8]: 2.39 pg/mL | % change of PGE2 vs DMEM + AA [1, 9]: −27.7% | [PGE2] [1, 9]: 2.17 pg/mL | % change of PGE2 vs DMEM + AA [1, 10]: −20.2% | [PGE2] [1, 10]: 2.29 pg/mL | mean decrease of PGE2 expression below untreated control ([1]; GC-100 1%): 24% | Cells/well (×10^3) ([2]; 0.1% GC-100): 17 ×10^3 cells/well | Cells/well (×10^3) ([2]; 0.5% GC-100): 20 ×10^3 cells/well | Cells/well (×10^3) ([2]; 1.0% GC-100): 21 ×10^3 cells/well | Cells/well (×10^3) ([2]; 5% GC-100): 28 ×10^3 cells/well | Cells/well (×10^3) ([2]; 10% GC-100): 24 ×10^3 cells/well | Cumulative fibroblast proliferation (mitosis) ([2]; in the presence of GC-100): 83% | % printed under erythema score (reduction vs control) ([3]; 0.1% GC-100, 2 hrs): 32% | Erythema score (mean ± SD) ([3]; 0.1% GC-100, 2 hrs after irradiation): 1.89 ± 0.60 | % printed under erythema score (reduction vs control) ([3]; 0.1% GC-100, 4 hrs): 58.7% | Erythema score (mean ± SD) ([3]; 0.1% GC-100, 4 hrs after irradiation): 1.56 ± 0.53 | % printed under erythema score (reduction vs control) ([3]; 0.1% GC-100, 5 hrs): 58.3% | Erythema score (mean ± SD) ([3]; 0.1% GC-100, 5 hrs after irradiation): 1.67 ± 0.71 | % printed under erythema score (reduction vs control) ([3]; 0.1% GC-100, 24 hrs): 50% | Erythema score (mean ± SD) ([3]; 0.1% GC-100, 24 hrs after irradiation): 1.00 ± 0.71 | effect on ultraviolet-induced erythema ([3]; 0.1%, 0.5%, 1% GC-100, greatest activity with 1%): ability to suppress ultraviolet-induced erythema | % printed under erythema score (reduction vs control) ([3]; 0.5% GC-100, 2 hrs): 56.1% | Erythema score (mean ± SD) ([3]; 0.5% GC-100, 2 hrs after irradiation): 1.22 ± 0.44 | % printed under erythema score (reduction vs control) ([3]; 0.5% GC-100, 4 hrs): 58.7% | Erythema score (mean ± SD) ([3]; 0.5% GC-100, 4 hrs after irradiation): 1.56 ± 0.53 | % printed under erythema score (reduction vs control) ([3]; 0.5% GC-100, 5 hrs): 58.7% | Erythema score (mean ± SD) ([3]; 0.5% GC-100, 5 hrs after irradiation): 1.56 ± 0.53 | % printed under erythema score (reduction vs control) ([3]; 0.5% GC-100, 24 hrs): 55.5% | Erythema score (mean ± SD) ([3]; 0.5% GC-100, 24 hrs after irradiation): 0.89 ± 0.33 | % printed under erythema score (reduction vs control) ([3]; 1.0% GC-100, 2 hrs): 64% | Erythema score (mean ± SD) ([3]; 1.0% GC-100, 2 hrs after irradiation): 1.00 | % printed under erythema score (reduction vs control) ([3]; 1.0% GC-100, 4 hrs): 67% | Erythema score (mean ± SD) ([3]; 1.0% GC-100, 4 hrs after irradiation): 1.22 ± 0.44 | % printed under erythema score (reduction vs control) ([3]; 1.0% GC-100, 5 hrs): 66.81% | Erythema score (mean ± SD) ([3]; 1.0% GC-100, 5 hrs after irradiation): 1.33 ± 0.50 | % printed under erythema score (reduction vs control) ([3]; 1.0% GC-100, 24 hrs): 83.5% | Erythema score (mean ± SD) ([3]; 1.0% GC-100, 24 hrs after irradiation): 0.33 ± 0.50 | collagen fibers in lower dermis, electron microscopy [4]: collagen fiber density is increased
